Experiments:
Type in all cases: functional
[1] = Cytotoxicity against human NCI-ADR-RES cells assessed as cell growth at 10^-5 M after 48 hrs by sulforhodamine B assay; conditions: read-out: Activity
[2] = Cytotoxicity against human HCT116 cells assessed as cell growth at 10^-5 M after 48 hrs by sulforhodamine B assay; conditions: HCT-116, 48 h, read-out: Activity
SK-MEL-5 = assay: Cytotoxicity against human SK-MEL-5 cells assessed as cell growth at 10^-5 M after 48 hrs by sulforhodamine B assay; conditions: SK-MEL-5, 48 h, read-out: Activity
M14 = assay: Cytotoxicity against human M14 cells assessed as cell growth at 10^-5 M after 48 hrs by sulforhodamine B assay; conditions: M14, 48 h, read-out: Activity
KM12 = assay: Cytotoxicity against human KM12 cells assessed as cell growth at 10^-5 M after 48 hrs by sulforhodamine B assay; conditions: KM12, 48 h, read-out: Activity
[3] = Cytotoxicity against human LOXIMVI cells assessed as cell growth at 10^-5 M after 48 hrs by sulforhodamine B assay; conditions: LOX IMVI, read-out: Activity
[4] = Cytotoxicity against human HOP92 cells assessed as cell growth at 10^-5 M after 48 hrs by sulforhodamine B assay; conditions: HOP-92, 48 h, read-out: Activity
[5] = Cytotoxicity against human SF295 cells assessed as cell growth at 10^-5 M after 48 hrs by sulforhodamine B assay; conditions: SF-295, 48 h, read-out: Activity
[6] = Cytotoxicity against human SNB19 cells assessed as cell growth at 10^-5 M after 48 hrs by sulforhodamine B assay; conditions: SNB-19, 48 h, read-out: Activity
NCI-H226 = assay: Cytotoxicity against human NCI-H226 cells assessed as cell growth at 10^-5 M after 48 hrs by sulforhodamine B assay; conditions: NCI-H226, 48 h, read-out: Activity
[7] = Cytotoxicity against human OVCAR5 cells assessed as cell growth at 10^-5 M after 48 hrs by sulforhodamine B assay; conditions: OVCAR-5, 48 h, read-out: Activity
[8] = Cytotoxicity against human UACC257 cells assessed as cell growth at 10^-5 M after 48 hrs by sulforhodamine B assay; conditions: UACC-257, 48 h, read-out: Activity
NCI-H460 = assay: Cytotoxicity against human NCI-H460 cells assessed as cell growth at 10^-5 M after 48 hrs by sulforhodamine B assay; conditions: NCI-H460, 48 h, read-out: Activity
[9] = Cytotoxicity against human DU145 cells assessed as cell growth at 10^-5 M after 48 hrs by sulforhodamine B assay; conditions: DU-145, 48 h, read-out: Activity
MDA-MB-468 = assay: Cytotoxicity against human MDA-MB-468 cells assessed as cell growth at 10^-5 M after 48 hrs by sulforhodamine B assay; conditions: MDA-MB-468, 48 h, read-out: Activity
[10] = Cytotoxicity against human PC3 cells assessed as cell growth at 10^-5 M after 48 hrs by sulforhodamine B assay; conditions: PC-3, 48 h, read-out: Activity
[11] = Cytotoxicity against human OVCAR8 cells assessed as cell growth at 10^-5 M after 48 hrs by sulforhodamine B assay; conditions: OVCAR-8, 48 h, read-out: Activity
[12] = Cytotoxicity against human SF539 cells assessed as cell growth at 10^-5 M after 48 hrs by sulforhodamine B assay; conditions: SF-539, 48 h, read-out: Activity
[13] = Cytotoxicity against human SW620 cells assessed as cell growth at 10^-5 M after 48 hrs by sulforhodamine B assay; conditions: SW-620, 48 h, read-out: Activity
CCRF-CEM = assay: Cytotoxicity against human CCRF-CEM cells assessed as cell growth at 10^-5 M after 48 hrs by sulforhodamine B assay; conditions: read-out: Activity
Malme-3M = assay: Cytotoxicity against human MALME-3M cells assessed as cell growth at 10^-5 M after 48 hrs by sulforhodamine B assay; conditions: read-out: Activity
NCI-H23 = assay: Cytotoxicity against human NCI-H23 cells assessed as cell growth at 10^-5 M after 48 hrs by sulforhodamine B assay; conditions: NCI-H23, 48 h, read-out: Activity
[14] = Cytotoxicity against human Hs 578T cells assessed as cell growth at 10^-5 M after 48 hrs by sulforhodamine B assay; conditions: read-out: Activity
[15] = Cytotoxicity against human HCT15 cells assessed as cell growth at 10^-5 M after 48 hrs by sulforhodamine B assay; conditions: HCT-15, 48 h, read-out: Activity
[16] = Cytotoxicity against human RPMI8226 cells assessed as cell growth at 10^-5 M after 48 hrs by sulforhodamine B assay; conditions: RPMI-8226, 48 h, read-out: Activity
A498 = assay: Cytotoxicity against human A498 cells assessed as cell growth at 10^-5 M after 48 hrs by sulforhodamine B assay; conditions: A498, 48 h, read-out: Activity
[17] = Cytotoxicity against human TK10 cells assessed as cell growth at 10^-5 M after 48 hrs by sulforhodamine B assay; conditions: TK-10, 48 h, read-out: Activity
A549 = assay: Cytotoxicity against human A549 cells assessed as cell growth at 10^-5 M after 48 hrs by sulforhodamine B assay; conditions: A549, 48 h, read-out: Activity
NCI-H522 = assay: Cytotoxicity against human NCI-H522 cells assessed as cell growth at 10^-5 M after 48 hrs by sulforhodamine B assay; conditions: NCI-H522, 48 h, read-out: Activity
[18] = Cytotoxicity against human UO31 cells assessed as cell growth at 10^-5 M after 48 hrs by sulforhodamine B assay; conditions: UO-31, 48 h, read-out: Activity
SR = assay: Cytotoxicity against human SR cells assessed as cell growth at 10^-5 M after 48 hrs by sulforhodamine B assay; conditions: read-out: Activity
[19] = Cytotoxicity against human SF268 cells assessed as cell growth at 10^-5 M after 48 hrs by sulforhodamine B assay; conditions: SF-268, 48 h, read-out: Activity
[20] = Cytotoxicity against human SNB75 cells assessed as cell growth at 10^-5 M after 48 hrs by sulforhodamine B assay; conditions: SNB-75, 48 h, read-out: Activity
[21] = Cytotoxicity against human Caki1 cells assessed as cell growth at 10^-5 M after 48 hrs by sulforhodamine B assay; conditions: CAKI-1, 48 h, read-out: Activity
ACHN = assay: Cytotoxicity against human ACHN cells assessed as cell growth at 10^-5 M after 48 hrs by sulforhodamine B assay; conditions: read-out: Activity
MDA-MB-231 = assay: Cytotoxicity against human MDA-MB-231 cells assessed as cell growth at 10^-5 M after 48 hrs by sulforhodamine B assay; conditions: MDA-MB-231, 48 h, read-out: Activity
786-0 = assay: Cytotoxicity against human 786-0 cells assessed as cell growth at 10^-5 M after 48 hrs by sulforhodamine B assay; conditions: 786-0, 48 h, read-out: Activity
MDA-MB-435 = assay: Cytotoxicity against human MDA-MB-435 cells assessed as cell growth at 10^-5 M after 48 hrs by sulforhodamine B assay; conditions: MDA-MB-435, 48 h, read-out: Activity

Structure (SMILES)	growth at 10 µM [1]	growth at 10 µM [2]	growth at 10 µM (SK-MEL-5)	growth at 10 µM (M14)	growth at 10 µM (KM12)	growth at 10 µM [3]	growth at 10 µM [5]	growth at 10 µM [6]	growth at 10 µM [7]	growth at 10 µM [8]	growth at 10 µM (NCI-H460)	growth at 10 µM [9]	growth at 10 µM (MDA-MB-468)	growth at 10 µM [10]	growth at 10 µM [11]	growth at 10 µM [12]	growth at 10 µM [13]	growth at 10 µM (CCRF-CEM)	growth at 10 µM (Malme-3M)	growth at 10 µM (NCI-H23)	other results
O=C1NC(=O)C(=Cc2cn(CC(O)Cn3cc(C=C4C(=O)NC(=O)NC4=O)c4ccccc43)c3ccccc23)C(=O)N1	99.5%	79.2%	101%	98.7%	94%	98%	103%	103%	109%	110%	55.1%	104%	96.7%	93.7%	117%	108%	102%	105%	97.7%	94.7%	growth at 10 µM [4]: 101%; growth at 10 µM (NCI-H226): 108%; growth at 10 µM [14]: 108%; growth at 10 µM [15]: 103%; growth at 10 µM [16]: 98.5%; growth at 10 µM (A498): 106%; growth at 10 µM [17]: 105%; growth at 10 µM (A549): 85.9%; growth at 10 µM (NCI-H522): 97.1%; growth at 10 µM [18]: 86%; growth at 10 µM (SR): 96.9%; growth at 10 µM [19]: 93.4%; growth at 10 µM [20]: 90.2%; growth at 10 µM [21]: 101%; growth at 10 µM (ACHN): 105%; growth at 10 µM (MDA-MB-231): 105%; growth at 10 µM (786-0): 91.3%; growth at 10 µM (MDA-MB-435): 109%
CN1C(=O)C(=Cc2cn(CC(O)Cn3cc(C=C4C(=O)N(C)C(=O)N(C)C4=O)c4ccccc43)c3ccccc23)C(=O)N(C)C1=O	105%	80.3%	97%	89.7%	94.3%	97%	107%	102%	90.5%	127%	33.1%	106%	19.4%	79.6%	114%	103%	102%	98.3%	87.7%	87.9%	growth at 10 µM [4]: 80.4%; growth at 10 µM (NCI-H226): 86%; growth at 10 µM [14]: 97.3%; growth at 10 µM [15]: 105%; growth at 10 µM [16]: 86.2%; growth at 10 µM (A498): 98.4%; growth at 10 µM [17]: 117%; growth at 10 µM (A549): 96.8%; growth at 10 µM (NCI-H522): 108%; growth at 10 µM [18]: 63.8%; growth at 10 µM (SR): 94.3%; growth at 10 µM [19]: 92%; growth at 10 µM [20]: 72.3%; growth at 10 µM [21]: 90.8%; growth at 10 µM (ACHN): 93.7%; growth at 10 µM (MDA-MB-231): 78.3%; growth at 10 µM (786-0): 100%; growth at 10 µM (MDA-MB-435): 107%
COc1cc(/C=C2\C(=O)Nc3ccccc32)cc(OC)c1O	19.1%	46.4%	45.7%	53.6%	32.2%	36.5%	60.6%	83.7%	112%	62.6%	40.1%	92.5%	20.4%	51.2%	78.5%	68.8%	31.5%	26.7%	118%	66.4%	growth at 10 µM [14]: 18.4%; growth at 10 µM [15]: 61.6%; growth at 10 µM [16]: 46.6%; growth at 10 µM (A498): 52.5%; growth at 10 µM [17]: 88.5%; growth at 10 µM (A549): 67.9%; growth at 10 µM (NCI-H522): 8.78%; growth at 10 µM [18]: 60%; growth at 10 µM (SR): -10.3%; growth at 10 µM [19]: 78.3%; growth at 10 µM [20]: 23.1%; growth at 10 µM [21]: 37.7%; growth at 10 µM (ACHN): 77%; growth at 10 µM (MDA-MB-231): 63.1%; growth at 10 µM (786-0): 83.2%; growth at 10 µM (MDA-MB-435): -25.3%
CC1=NN(c2cccc(Cl)c2)C(=O)/C1=C\c1cn(CC(O)Cn2cc(/C=C3\C(=O)N(c4cccc(Cl)c4)N=C3C)c3ccccc32)c2ccccc12	111%	99.3%	101%	101%	100%	102%	111%	107%	102%	116%	111%	111%	123%	104%	115%	94.2%	108%	106%	89.6%	105%	growth at 10 µM [4]: 122%; growth at 10 µM (NCI-H226): 109%; growth at 10 µM [14]: 102%; growth at 10 µM [15]: 106%; growth at 10 µM [16]: 109%; growth at 10 µM (A498): 119%; growth at 10 µM [17]: 118%; growth at 10 µM (A549): 94.1%; growth at 10 µM (NCI-H522): 97.6%; growth at 10 µM [18]: 86.4%; growth at 10 µM (SR): 96.3%; growth at 10 µM [19]: 104%; growth at 10 µM [20]: 93.4%; growth at 10 µM [21]: 98.8%; growth at 10 µM (ACHN): 107%; growth at 10 µM (MDA-MB-231): 97.2%; growth at 10 µM (786-0): 110%; growth at 10 µM (MDA-MB-435): 106%
O=C1Nc2ccccc2/C1=C/c1cn(CC(O)Cn2cc(/C=C3\C(=O)Nc4ccccc43)c3ccccc32)c2ccccc12 (stereo not drawn)	31.8%	-64.2%	-80.2%	-81.4%	-80.9%	-84.5%	-84.7%	-43%	-34.1%	-51%	-65.1%	-90.5%	-84.8%	-86.3%	1.35%	-77.7%	-60.4%	-30.6%	-76%	-67.3%	growth at 10 µM [4]: -73.9%; growth at 10 µM (NCI-H226): -74.8%; growth at 10 µM [14]: -22.2%; growth at 10 µM [15]: -69.8%; growth at 10 µM [16]: -41.7%; growth at 10 µM (A498): -73.2%; growth at 10 µM [17]: -15.1%; growth at 10 µM (A549): -11.6%; growth at 10 µM (NCI-H522): -17.4%; growth at 10 µM [18]: -9.18%; growth at 10 µM (SR): -2.94%; growth at 10 µM [19]: -62%; growth at 10 µM [20]: -95.9%; growth at 10 µM [21]: 9.83%; growth at 10 µM (ACHN): -68.4%; growth at 10 µM (MDA-MB-231): -80%; growth at 10 µM (786-0): -70.8%; growth at 10 µM (MDA-MB-435): -87.6%

Source: ChEMBL document CHEMBL3785084, “Rational modification of the lead molecule: Enhancement in the anticancer and dihydrofolate reductase inhibitory activity” (Bioorg Med Chem Lett, 2016)
